In patent US10829519B2, “Angiotensin (1-7) analogs and methods relating thereto” (WAKE FOREST UNIVERSITY HEALTH SCIENCES, priority 2015, dated 2020):
Where two headings read alike, the source gives them in different places. Where a SMILES comes first, the peptide text is derived from it. Bridges are numbered along the chain shown (N, C = ends). [ ]: non-standard residue; d: D form. Nle = CCCC[C@H](N)C(=O)O

Experiments:
[1] = tested on: MDA-MB-231 human breast cancer cells; assay: In vitro inhibition of MDA-MB-231 cell growth by analogs with amino acid substitutions (Example 7); type: cell-based; settings: 100 nM, 8-10 days; for growth inhibition compared with Ang-(1-7) and TCAng05: added twice weekly
Method: To determine whether the novel analogs reduced tumor growth, subconfluent monolayers of actively growing MDA-MB-231 human breast cancer cells in 24-well cluster plates were incubated with 100 nM of Ang(1-7) (A7), TCAng05 (TC), or one of analogs NEP1-24 for 8-10 days. Ang-(1-7) was added daily as it is rapidly degraded while the Ang(1-7) analogs were added twice weekly at the time the cells were fed. Saline was used as control (C). Cell numbers were then counted using a Nexelcom Cellometer. Assays were performed in triplicate for 2-4 replicates.

4T1 breast cancer cells [2] = type: in vivo, mouse; settings: for final tumor volume: daily gavage, untreated 671.2±127.2
Method: The oral efficacy of TCAng05 to inhibit tumor growth in vivo was also measured using the orthotopic model of human breast cancer described in Example 4. 4T1 breast cancer cells were injected into the mammary fat pad of BALB/C mice (2.5×10^5 cells in saline). Tumor size was measured every 3 days using a caliper and tumor volume was calculated using the formula for a semi-ellipsoid. The tumors were allowed to grow until they reached a size of 100 mm^3, at which point treatment was started (Day 0). Mice received daily gavage of TCAng05 at one of three concentrations: 12 μg/kg/day (Low), 60 μg/kg/day (Medium), or 300 μg/kg/day (High). Mice were sacrificed on Day 21 of treatment. Treatment groups contained 3-4 animals. […] At the time of sacrifice, the tumors were weighed.

CD34 = CD34 immunohistochemistry of tumors from orally treated mice (blood vessel density); type: in vivo, mouse; settings: oral TCAng05
Method: (§1) To identify the molecular mechanisms for the reduction in tumor weight, tumors from mice that received oral TCAng05 (described in Example 5) were assessed for cell markers associated with cell proliferation, angiogenesis, and fibrosis. Tumors were fixed in 4% formalin, embedded in paraffin, sectioned at 5 microns, and analyzed by immunohistochemistry. Tumor tissue sections were visualized using a Leica DM microscope (Leica Microsystems, Bannockburn, Ill.) with the Simple PCI Version 6.0 computer-assisted imaging software (Hamamatsu Corporation, Sewickley, Pa.) and photographed with the Qlmaging Retiga 1300R Camera (Qlmaging Co. Surey, BC, Canada). The number of immunopositive cells is expressed as a percentage of the total cell number examined (100 cells counted from each tissue site within a tumor section).
Tumor sections were stained with an antibody specific for CD34 to label endothelial cells lining blood vessels and measure the density of blood vessels. […] In previous studies with orthotopic models, Ang-(1-7) reduced angiogenesis in mice with human lung tumors or human prostate tumors (Soto-Pantoj a et al., Mol Cancer Ther 2009; 8:1676-83; Krishnan et al., Prostate 2013; 73:60-70). This is in agreement with a reduction in the pro-angiogenic peptide platelet-derived growth factor (PDGF) in patients with solid tumors treated with Ang-(1-7) (Petty et al., BMC Cancer 2012; 12:404).

4T1 breast cancer cells [3] = assay: In vivo inhibition of tumor growth by subcutaneous administration, orthotopic 4T1 model in BALB/C mice; parameters: species or system mouse
Method: The ability of TCAng05 to inhibit tumor growth in vivo was measured in an orthotopic model of human breast cancer, using 4T1 breast cancer cells. 4T1 cells (2.5×10^5 in saline) were injected into the 4th mammary fat pad of BALB/C mice. Tumor size was measured every 3 days using a caliper and tumor volume was calculated using the formula for a semi-ellipsoid. The tumors were allowed to grow until they reached a size of 100 mm^3, at which point subcutaneous treatment was started (Day 0). Primed osmotic mini-pumps were implanted into the subcutaneous space on the back of each mouse to deliver either saline, 24 μg/kg/h Ang-(1-7), 6 μg/kg/h TCAng05 (low), 12 μg/kg/h TCAng05 (medium), or 24 μg/kg/h TCAng05 (high). Mice were sacrificed on Day 21 of treatment. Five animals were used per treatment group. […] Treatment with Ang-(1-7) reduced tumor size 50%, to a final size of 495.5±110.8 mm^3. […] At the time of sacrifice, the mice were weighed and the tumors, heart and kidneys were weighed.

[4] = tested on: MDA-MB-231 human breast cancer cells; type: cell-based; settings: 7 to 10 days; for effect on MDA-MB-231 cell growth / reduction of cell growth: 100 nM; for effect on MDA-MB-231 cell growth: added once (Day 0/Day 1); for reduction of cell growth: analogs added on Day 0 (single dose), cell number
Method: (§2) To determine the effect of the peptide analogs on tumor cell growth, 100 nM Ang-(1-7) or analogs TCAng01-TCAng05 (SEQ ID NOs:2-6) were incubated with subconfluent monolayers of actively growing A549 human lung cancer cells or MDA-MB-231 human breast cancer cells in 24-well cluster plates for 6 to 10 days or 7 to 10 days. Assays were performed in duplicate for 4-14 replicates or 3-14 replicates, respectively. Cell number was counted using a Nexelcom Cellometer. […] Ang-(1-7) does inhibit the growth of human breast cancer cells (by 42.9±5.2%, n=6, over 6-10 days) and human lung cancer cells (by 53.1±7.1%, n=12, over 7-10 days) if it is added daily, as shown in FIG. 2 and FIG. 3.
A linear form of TCAng05 (L-TCAng05; SEQ ID NO:7) was tested to determine the influence of cyclization on the stability of the peptide. Subconfluent monolayers of MDA-MB-231 human breast cancer cells were incubated with 100 nM of Ang-(1-7), L-TCAng05, or TCAng05 for 7 to 10 days and cell number was counted using a Nexelcom Cellometer. Assays were performed in duplicate for 3-14 replicates. Ang-(1-7) was added daily, due to its rapid degradation.
Similar assays were performed to assess whether inhibition of cell growth by TCAng05 was mediated by the Ang-(1-7) receptor mas. Subconfluent monolayers of MDA-MB-231 human breast cancer cells were incubated with 100 nM of Ang-(1-7), added daily, or TCAng05, in the presence or absence of 1 μM Ang-(1-7) receptor antagonist D-Alanine^7-Ang-(1-7) [Dala] for 7 to 10 days and cell number was counted using a Nexelcom Cellometer. Assays were performed in duplicate for 4-14 replicates.

[5] = tested on: A549 human lung cancer cells; type: cell-based; settings: 100 nM, analogs added on Day 0 (single dose), cell number
Method: as §2

Ki67 = Ki67 immunohistochemistry of tumors from orally treated mice (cell proliferation); type: in vivo, mouse; settings: oral TCAng05, 12, 60, 300 μg/kg/day
Method: as §1
Tumor sections were stained with an antibody specific for Ki67 to measure cell proliferation.

collagen = assay: Picrosirius red collagen staining of tumors from orally treated mice (fibrosis); type: in vivo, mouse; settings: oral TCAng05
Method: as §1
Tumor sections were stained with Picrosirius red to stain for collagen.

[6] = Stability of peptides incubated in rat plasma at 37° C., HPLC; type: in vitro ADME
Method: The stability of the Ang(1-7) peptide analog TCAng04 (SEQ ID NO:5) was assessed in rat plasma. The peptide was incubated with rat plasma at 37° C. for 60 min (left) or 125 hours (right). The concentration of TCAng04 and Ang-(1-7) was determined by HPLC using verified standards. Ang-(1-7) was rapidly degraded following incubation in rat plasma with a half-life of about 30 min, similar to the pharmacokinetics observed in two clinical trials (FIG. 1B) (see Rodgers et al. Cancer Chemother Pharmacol 2006; 57:559-68; and Petty et al. Clinical Cancer Research 2009; 15:7398-404). Conversely, TCAng04 was stable under the same conditions, with a half-life in rat plasma of approximately 50 hours.

[7] = rat plasma, 37° C., HPLC, read-out: half-life in rat plasma (converted)

For “[Lac(2,9)]Ac-(Nle)cyc[DRVYLHPK](dV)(dP)-amide (Ac-[Nle]DRVYLHPK[dV][dP]-NH2; lactam 2-9; not fully specified; printed as [Lac(2,9)]Ac-(Nle)cyc[DRVYLHPK](dV)(dP)-amide) [NEP12]”, the “growth inhibition compared with Ang-(1-7) and TCAng05” value [1] was “reduced cell growth comparably”.
With “[Lac(2,9)[Ac-(Nle)cyc[DRVYIHPK](dV)(dP)-amide (Ac-[Nle]DRVYIHPK[dV][dP]-NH2; lactam 2-9; not fully specified; printed as [Lac(2,9)[Ac-(Nle)cyc[DRVYIHPK](dV)(dP)-amide) [TCAng05]” the final tumor volume (4T1 breast cancer cells [2]; high dose 300 μg/kg/day) was 378.3±151.2 mm^3, the “effect of low dose” value (4T1 breast cancer cells [2]; low dose 12 μg/kg/day, oral) was “not significantly impact” and the final tumor volume (4T1 breast cancer cells [2]; medium dose 60 μg/kg/day) was 289.7±64.2 mm^3. For the same compound, the “tumor weight” value (4T1 breast cancer cells [2]; medium or high oral dose, at sacrifice) was “reduced”, the “mouse weight, heart weight or kidney weight” value (4T1 breast cancer cells [2]; mouse, in vivo, po) was “no effect” and the “density of blood vessels (CD34) in tumor sections” value (CD34) was “significant reduction”. The “final tumor size (volume)” value (4T1 breast cancer cells [3]; 24 μg/kg/h, subcutaneous osmotic mini-pump, saline 980.1±35.0) was 259.1±19.2 mm^3, the “tumor size across doses” value (4T1 breast cancer cells [3]; 6, 12, 24 μg/kg/h subcutaneous) was “dose-dependent reduction” and the “reduction in tumor weight” value (4T1 breast cancer cells [3]; highest concentration (24 μg/kg/h), subcutaneous, at sacrifice) was 48%. For the same compound, the “effect of low and medium doses” value (4T1 breast cancer cells [3]; low (6 μg/kg/h) and medium (12 μg/kg/h) doses, subcutaneous) was “not significantly impact”, the “weight of the mice, size of hearts and kidneys” value (4T1 breast cancer cells [3]; mouse, in vivo, sc) was “no change” and the “inhibition of growth in the presence of Ang-(1-7) receptor antagonist Dala” value ([4]; 100 nM peptide plus 1 μM D-Alanine7-Ang-(1-7) [Dala]) was “blocked”. For the same compound, the “effect on MDA-MB-231 cell growth” value [4] was “reduced growth”, the “reduction of cell growth” value [4] was 51.5±5.4% and the “reduction of cell growth” value [5] was 33.7±12.3%. For the same compound, the “reduction of cell growth” value ([1]; Ang-(1-7) added daily, analogs added twice weekly) was 27.3±9.8%, the “Ki67 immunoreactivity in tumor sections” value (Ki67) was “dose-dependent reduction” and the “collagen staining (Picrosirius red) in tumor sections” value (collagen) was “reduced”.
With “[Lac(2,9)]Ac-(Nle)cyc[DRVYAHPK](dV)(dP)-amide (Ac-[Nle]DRVYAHPK[dV][dP]-NH2; lactam 2-9; not fully specified; printed as [Lac(2,9)]Ac-(Nle)cyc[DRVYAHPK](dV)(dP)-amide) [NEP4]” the “growth inhibition compared with Ang-(1-7) and TCAng05” value [1] was “reduced cell growth comparably”.
In the case of “[Lac(2,9)]Ac-(Nle)cyc[DRVYIHP(K)-amide] (Ac-[Nle]DRVYIHPK-NH2; lactam 2-9; not fully specified; printed as [Lac(2,9)]Ac-(Nle)cyc[DRVYIHP(K)-amide]) [NEP8]”, the “growth inhibition compared with Ang-(1-7) and TCAng05” value [1] is reported as “reduced cell growth comparably”.
With `CC[C@H](C)[C@H](NC(=O)[C@H](Cc1ccc(O)cc1)NC(=O)[C@@H](NC(=O)[C@H](CCCNC(=N)N)NC(=O)[C@@H](N)CC(=O)O)C(C)C)C(=O)N[C@@H](Cc1c[nH]cn1)C(=O)N1CCC[C@H]1C(=O)O` [Ang-(1-7), DRVYIHP] the “weight of the mice, size of hearts and kidneys” value (4T1 breast cancer cells [3]; subcutaneous treatment, at sacrifice) was “no change”, the half-life [6, 7] was about 30 min and the half-life ([6]; read-out: half-life in plasma) was 30 min.
In the case of “[Lac(2,9)]Ac-(Nle)cyc[DRVYIHP(Dab)](dV)(dP)-amide [NEP24]”, the “growth inhibition compared with Ang-(1-7) and TCAng05” value [1] is reported as “reduced cell growth comparably”.
With “[Lac(2,9)]H2N-(Nle)cyc[DRVYIHPK](dV)(dP)-amide (H-[Nle]DRVYIHPK[dV][dP]-NH2; lactam 2-9; not fully specified; printed as [Lac(2,9)]H2N-(Nle)cyc[DRVYIHPK](dV)(dP)-amide) [NEP16]” the “growth inhibition compared with Ang-(1-7) and TCAng05” value [1] was “reduced cell growth comparably”.
With “Ac-(Nle)DRVYIHPK(dV)(dP)-amide (Ac-[Nle]DRVYIHPK[dV][dP]-NH2; SMILES CCCC[C@H](NC(C)=O)C(=O)N[C@@H](CC(=O)O)C(=O)N[C@@H](CCCNC(=N)N)C(=O)N[C@H](C(=O)N[C@@H](Cc1ccc(O)cc1)C(=O)N[C@H](C(=O)N[C@@H](Cc1c[nH]cn1)C(=O)N1CCC[C@H]1C(=O)N[C@@H](CCCCN)C(=O)N[C@@H](C(=O)N1CCC[C@@H]1C(N)=O)C(C)C)[C@@H](C)CC)C(C)C) [L-TCAng05, linear form of TCAng05]” the “effect on MDA-MB-231 cell growth” value [4] was “ineffective”.
With “[Lac(2,9)]Ac-(Nle)cyc[DRVYIHP(NMeK)](dV)(dP)-amide [NEP20]” the “growth inhibition compared with Ang-(1-7) and TCAng05” value [1] was “reduced cell growth comparably”.
For `CC[C@H](C)[C@@H]1NC(=O)[C@H](Cc2ccc(O)cc2)NC(=O)[C@H](C(C)C)NC(=O)[C@H](CCCNC(=N)N)NC(=O)[C@H](CC(=O)O)NC(=O)C[C@@H](C(=O)N[C@@H](C(=O)N2CCC[C@@H]2C(N)=O)C(C)C)NC(=O)[C@@H]2CCCN2C(=O)[C@H](Cc2c[nH]cn2)NC1=O` [TCAng04, cyc[DRVYIHPD](dV)(dP)-amide] (DRVYIHPD[dV][dP]-NH2; lactam N-8), the “reduction of cell growth” value [4] was 51.5±5.4%, the “reduction of cell growth” value [5] was 33.7±12.3% and the half-life [6, 7] was about 3000 min.
